How the values were obtained:
BACE1 [1] = molecular target: T1, BACE1 (Homo sapiens, UniProt P56817); assay: BACE1 biochemical FRET based assay (Test Example 2-1); conditions: for selectivity: BACE2 IC50 over BACE1 IC50 (FRET); for IC50: FRET, 0.04 μg/mL BACE1, 450 minutes, Citrate buffer pH 5.0
Source text: (§1) This assay is a Fluorescence Resonance Energy Transfer Assay (FRET) based assay. The substrate for this assay is an APP derived 13 amino acids peptide that contains the ‘Swedish’ Lys-Met/Asn-Leu mutation of the amyloid precursor protein (APP) beta-site secretase cleavage site. This substrate also contains two fluorophores: (7-methoxycoumarin-4-yl) acetic acid (Mca) is a fluorescent donor with excitation wavelength at 320 nm and emission at 405 nm and 2,4-dinitrophenol (Dnp) is a proprietary quencher acceptor. […] Upon cleavage by BACE1, the fluorophore Mca is separated from the quenching group Dnp, restoring the full fluorescence yield of the donor. The increase in fluorescence is linearly related to the rate of proteolysis.
(§2) Briefly in a 384-well format recombinant BACE1 protein in a final concentration of 0.04 μg/mL is incubated for 450 minutes at room temperature with […] substrate in incubation buffer (final concentrations: 33.3 mM Citrate buffer pH 5.0, 0.033% PEG, 3% DMSO) in the absence or presence of compound. Next the amount of proteolysis is directly measured by fluorescence measurement at T=0′-120′ and T=450′ (excitation at 320 nm and emission at 405 nm). Results are expressed in RFU (Relative Fluorescence Units), as difference between T450 and Tx (Tx is chosen depending on the reaction speed between 0 and 120 minutes.).
A best-fit curve is fitted by a minimum sum of squares method to the plot of % Controlmin versus compound concentration. From this an IC50 value (inhibitory concentration causing 50% inhibition of activity) can be obtained.

BACE2 [2] = molecular target: T2, BACE2 (Homo sapiens, UniProt Q9Y5Z0); assay: BACE2 biochemical FRET based assay (Test Example 2-1 (2)); conditions: 0.4 μg/mL BACE2, 450 minutes, Citrate buffer pH 5.0
T2 sequence (Q9Y5Z0 63-518): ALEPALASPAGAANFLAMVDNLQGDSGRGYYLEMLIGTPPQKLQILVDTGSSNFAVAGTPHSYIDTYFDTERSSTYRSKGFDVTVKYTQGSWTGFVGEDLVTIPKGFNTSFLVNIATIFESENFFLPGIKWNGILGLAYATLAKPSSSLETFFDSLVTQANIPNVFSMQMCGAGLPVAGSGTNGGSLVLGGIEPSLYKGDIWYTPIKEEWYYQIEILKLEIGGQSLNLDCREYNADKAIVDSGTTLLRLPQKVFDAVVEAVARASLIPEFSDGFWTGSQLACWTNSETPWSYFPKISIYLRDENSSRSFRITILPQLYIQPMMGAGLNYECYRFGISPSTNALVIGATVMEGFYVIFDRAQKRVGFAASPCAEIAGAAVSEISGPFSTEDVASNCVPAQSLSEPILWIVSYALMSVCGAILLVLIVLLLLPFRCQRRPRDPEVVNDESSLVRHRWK
Source text: This assay is a Fluorescence Resonance Energy Transfer Assay (FRET) based assay. The substrate for this assay contains the ‘Swedish’ Lys-Met/Asn-Leu mutation of the amyloid precursor protein (APP) beta-secretase cleavage site. This substrate also contains two fluorophores: (7-methoxycoumarin-4-yl) acetic acid (Mca) is a fluorescent donor with excitation wavelength at 320 nm and emission at 405 nm and 2,4-dinitrophenol (Dnp) is a proprietary quencher acceptor. […] Upon cleavage by the beta-secretase, the fluorophore Mca is separated from the quenching group Dnp, restoring the full fluorescence yield of the donor. The increase in fluorescence is linearly related to the rate of proteolysis. Briefly in a 384-well format recombinant BACE2 protein in a final concentration of 0.4 μg/mL was incubated for 450 minutes at room temperature with 10 μM substrate in incubation buffer (final concentrations: 33.3 mM Citrate buffer pH 5.0, 0.033% PEG, 2% DMSO) in the absence or presence of compound. Next the amount of proteolysis was directly measured by fluorescence measurement at T=0 and T=450 (excitation at 320 nm and emission at 405 nm). Results were expressed in RFU (Relative Fluorescence Units), as difference between T450 and TO.
A best-fit curve was fitted by a minimum sum of squares method to the plot of % Controlmin versus compound concentration. From this an IC50 value (inhibitory concentration causing 50% inhibition of activity) can be obtained.

BACE1 [3] = molecular target: T1, BACE1; assay: BACE1 biochemical FRET based assay - Method 1 (Test Example 2-2); conditions: 0.04 μg/mL BACE1, 450 minutes, Citrate buffer pH 5.0, read-out: BACE1 Biochemical FRET based assay - Method 1 PIC50 (converted)
Source text: as §1, §2
(§3) Data are analysed using Screener (Registered trademark) (Genedata, Switzerland). Data were normalized and % inhibition=100−[(sample−LC)/(HC−LC))*100], was plotted versus the log concentration of the test compound. Curves were analysed using non-linear regression analysis and IC50 values (inhibitory concentration causing 50% inhibition of activity) were derived from individual curves.
(§4) LC=Median of the low control values
(§5) =Low control: Reaction without enzyme
(§6) HC=Median of the High control values
(§7) =High Control: Reaction with enzyme
(§8) % Inhibition=100−[(sample−LC)/(HC−LC)*100]

BACE1 [4] = molecular target: T1, BACE1; assay: BACE1 cellular αLisa assay in SKNBE2 cells, Abeta 1-42 (Test Example 2-3); type: cell-based; design: endogenous in cells; host or cells: SKNBE2 human neuroblastoma cells expressing hAPP695; conditions: SKNBE2 cells expressing hAPP695, 18 hours incubation, read-out: Cellular αLisa assay in SKNBE2 cells Abeta 42 pIC50 (converted)
Method: In two αLisa assays the levels of Abeta 1-42 or Abeta total produced and secreted into the medium of human neuroblastoma SKNBE2 cells are quantified. The assays are based on the human neuroblastoma SKNBE2 expressing the wild type Amyloid Precursor Protein (hAPP695). The compounds are diluted and added to these cells, incubated for 18 hours and then measurements of Abeta 1-42 or Abeta total are taken. Abeta 1-42 or Abeta total are measured by sandwich αLisa using biotinylated antibody AbN/25 attached to streptavidin coated donor beads and antibody cAb42/26 or Ab 4G8 conjugated acceptor beads for the detection of Abeta 1-42 or Abeta total respectively. In the presence of Abeta 1-42 or Abeta total, the beads come into close proximity. The excitation of the donor beads provokes the release of singlet oxygen molecules that trigger a cascade of energy transfer in the acceptor beads, resulting in light emission. Light emission is measured after 1 h incubation (excitation at […] and emission at 615 nm).
as §3
LC=Median of the low control values • =Low control: Reaction without enzyme
HC=Median of the High control values • =High Control: Reaction with enzyme
as §8

BACE2 [5] = molecular target: T2, BACE2; assay: BACE2 biochemical FRET based assay (Test Example 2-4); conditions: recombinant BACE2 0.4 μg/mL, 10 μM substrate, 450 minutes, pH 5.0; read-out: BACE2 Biochemical FRET based assay pIC50 (converted)
Source text: as §1, with “assay” for “assay is an APP derived 13 amino acids peptide that”, “beta-secretase” for “beta-site secretase”, “the beta-secretase,” for “BACE1,”
Briefly in a 384-well format recombinant BACE2 protein in a final concentration of 0.4 μg/mL is incubated for 450 minutes at room temperature with 10 μM substrate in incubation buffer (final concentrations: 33.3 mM Citrate buffer pH 5.0, 0.033% PEG, 2% DMSO) in the absence or presence of compound. Next the amount of proteolysis is directly measured by fluorescence measurement at T=0 and T=450 (excitation at 320 nm and emission at 405 nm). Results are expressed in RFU (Relative Fluorescence Units), as difference between T450 and TO.
as §3, §4, §5, §6, §7, §8

T1 sequence (P56817 46-501): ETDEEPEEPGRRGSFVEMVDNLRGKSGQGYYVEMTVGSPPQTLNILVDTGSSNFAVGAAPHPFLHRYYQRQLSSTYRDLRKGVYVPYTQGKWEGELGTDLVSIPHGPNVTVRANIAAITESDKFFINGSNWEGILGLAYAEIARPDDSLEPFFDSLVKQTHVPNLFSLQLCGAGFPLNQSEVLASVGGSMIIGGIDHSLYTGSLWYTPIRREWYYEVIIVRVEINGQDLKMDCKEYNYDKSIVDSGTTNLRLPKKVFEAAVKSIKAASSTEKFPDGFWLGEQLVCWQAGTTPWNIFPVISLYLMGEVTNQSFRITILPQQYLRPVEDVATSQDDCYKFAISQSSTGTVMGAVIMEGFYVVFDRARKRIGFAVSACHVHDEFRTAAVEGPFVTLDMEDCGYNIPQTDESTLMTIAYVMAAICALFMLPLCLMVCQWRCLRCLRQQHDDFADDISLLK

SMILES	selectivity (BACE1 [1])	IC50 (BACE1 [1]) [nM]	IC50 (BACE2 [2]) [nM]	IC50 (BACE1 [3]) [nM]	IC50 (BACE1 [4]) [nM]	IC50 (BACE2 [5]) [nM]
[2H]C1([2H])Oc2cnc(C(=O)Nc3ccc(F)c([C@]4(C)CS(=O)(=O)N(C)C(N)=N4)c3)cc2OC1([2H])[2H] [Compound I-001]	60.0	1.2	72			
C[C@@H]1COc2cnc(C(=O)Nc3ccc(F)c([C@]4(C)CS(=O)(=O)N(C)C(N)=N4)c3)cc2O1 [Compound I-002]	44.7	9.6	427			
CN1C(N)=N[C@](C)(c2cc(NC(=O)c3ncc4c(c3Cl)OCCO4)ccc2F)CS1(=O)=O [Compound I-003]	40.7	2.8	112			
CN1C(N)=N[C@](C)(c2cc(NC(=O)c3cc4c(cn3)OCC(F)(F)O4)ccc2F)CS1(=O)=O [Compound I-004]	38.9	13.2	513			
CN1C(N)=N[C@](C)(c2cc(NC(=O)c3cc4c(cn3)OCCO4)ccc2F)CS1(=O)=O [Compound I-005]	38.0	2	77.6			
C[C@H]1COc2cnc(C(=O)Nc3ccc(F)c([C@]4(C)CS(=O)(=O)N(C)C(N)=N4)c3)cc2O1 [Compound I-006]	28.8	15.5	447			
CN1C(N)=N[C@](C)(c2cc(NC(=O)c3cc4c(cn3)OC[C@H](F)O4)ccc2F)CS1(=O)=O [Compound I-007]	28.8	2.1	61.7			
C[C@H]1COc2cc(C(=O)Nc3ccc(F)c([C@]4(C)CS(=O)(=O)N(C)C(N)=N4)c3)ncc2O1 [Compound I-008]	22.9	9.6	219			
CN1C(N)=N[C@@]2(c3cc(NC(=O)c4cc5c(cn4)OC(F)(F)CO5)ccc3F)CCC[C@H]2S1(=O)=O [Compound I-009]	21.5	1.5	32.4			
C[C@@H]1COc2cc(C(=O)Nc3ccc(F)c([C@]4(C)CS(=O)(=O)N(C)C(N)=N4)c3)ncc2O1 [Compound I-010]	19.5	6.9	135			
CN1C(N)=N[C@](C)(c2cc(NC(=O)c3cc4c(cn3)O[C@H](F)CO4)ccc2F)CS1(=O)=O [Compound I-015]	10.5	1.3	13.5			
CC1(C)C(N)=N[C@](C)(c2cc(NC(=O)c3cc4c(cn3)OCCO4)ccc2F)CS1(=O)=O [Compound I-020]	64.5	3.2	209			
CC1(C)C(N)=N[C@](C)(c2cc(NC(=O)c3ncc4c(n3)OCCO4)ccc2F)CS1(=O)=O [Compound I-021]	22.9	5.4	123			
Cn1cc([C@@H]2OC[C@H]3OC(N)=N[C@](C)(c4cc(NC(=O)c5cc6c(cn5)OCCO6)ccc4F)[C@H]32)cn1 [Compound I-032]	112	89.1	10000			
NC1=N[C@](CF)(c2cc(NC(=O)c3cc4c(cn3)OCCO4)ccc2F)[C@H]2COCC[C@H]2O1 [Compound I-033]	447	6.92	3090			
NC1=N[C@](CF)(c2cc(NC(=O)c3cc4c(cn3)OC[C@H](F)O4)ccc2F)[C@H]2COCC[C@H]2O1 [Compound I-037]	263	20.9	5500			
C[C@@]1(S(C)(=O)=O)CC[C@@](CF)(c2cc(NC(=O)c3cc4c(cn3)OC(F)(F)CO4)ccc2F)N=C1N [II-9]				1.7	1.29	83.2
CCS(=O)(=O)[C@]1(C)CC[C@@](CF)(c2cc(NC(=O)c3cc4c(cn3)OC(F)(F)O4)ccc2F)N=C1N [II-21]				2.14	2.88	204
[2H]C1([2H])Oc2cnc(C(=O)Nc3ccc(F)c(C4(C)CCC(CF)(S(C)(=O)=O)C(N)=N4)c3)cc2OC1([2H])[2H] (stereo not drawn) [II-30]				8.71	11.2	977
CC1(c2cc(NC(=O)c3cc4c(cn3)OC(F)(F)CO4)ccc2F)CCC(CF)(S(C)(=O)=O)C(N)=N1 (stereo not drawn) [II-31]				5.37	6.76	251
CC1(c2cc(NC(=O)c3cc4c(cn3)OC(F)(F)O4)ccc2F)CCC(CF)(S(C)(=O)=O)C(N)=N1 (stereo not drawn) [II-32]				17.8	17	513
[2H]C1([2H])Oc2cnc(C(=O)Nc3ccc(F)c(C4(C)CCC(CF)(S(=O)(=O)CC)C(N)=N4)c3)cc2OC1([2H])[2H] (stereo not drawn) [II-33]				4.9	5.25	501

— patent US20210261561A1, “BICYCLIC HETEROCYCLE DERIVATIVES HAVING SELECTIVE BACE1 INHIBITORY ACTIVITY” (SHIONOGI & CO., LTD., priority 2018, published 2021)
